Results reported in patent US6960592B2, “1,6-dihydro-7H-pyrazolo[4,3-d]pyrimidin-7-one compound for the treatment of impotence” (priority 2001, dated 2005).

How the values were obtained:
[1] = system: rats with testis removed; experiment: Penis erection test in rats with testis removed; assay type: in vivo
Source text: Test 1. Penis erection test of the compound formula (I′) in rats with testis removed

[2] = system: mice with testis removed; experiment: Effect on the sexual function in mice with testis removed; assay type: in vivo
Source text: Test 2. Effect of the compound of formula (I′) on the sexual function in mice with testis removed

[3] = Toxicity test, LD50 by Bliss method, oral gavage; conditions: mouse, in vivo, mice, orally by gavage, confidence limit of 95% 772.5-1052.1 mg/kg, read-out: half-lethal dosage (LD50)
Procedure: The confidence limit of 95% is 772.5-1052.1 mg/kg.

[4] = system: male mice; conditions: orally, single dose, from Chinese Journal of Clinical Pharmacology and Therapeutics 1999, 4(3), 237-240; cited from earlier work

Row | Structure (SMILES) | latent period of penis erection by electric irritation (10V) ([1]; dosage 12 mg/kg, P<0.01) | latent period of penis erection by electric irritation (10V) ([1]; dosage 24 mg/kg, P<0.05) | latent period which male mice catch female mice ([2]; dosage 12 mg/kg, P<0.01) | times of back-climbing on female mice by male mice (times of sexual intercourse) ([2]; dosage 12 mg/kg, P<0.01) | latent period which male mice catch female mice ([2]; dosage 24 mg/kg, P<0.05) | times of back-climbing on female mice by male mice (times of sexual intercourse) ([2]; dosage 24 mg/kg, P<0.05) | LD50 [3] [mg/kg] | LD50 [4] [mg/kg] | latent period of penis erection by electric irritation (10V) ([1]; sildenafil comparator, dose not given, P<0.01)
1 | CCCc1nn(C)c2c(=O)[nH]c(-c3cc(S(=O)(=O)N4C[C@@H](C)N[C@@H](C)C4)ccc3OCC)nc12 [compound of formula (I′), 5-[[2-ethoxy-5-(cis-2,6-dimethylpiperazin-4-ylsulphonyl)phenyl]]-1-methyl-3-n-propyl-7,6-dihydro-1H-pyrazolo[4,3-d]pyrimidin-7-one] | significantly shortened | significantly shortened | significantly shortened | significantly increased | significantly shortened | significantly increased | 902 | – | –
2 | CCCc1nn(C)c2c(=O)[nH]c(-c3cc(S(=O)(=O)N4CCN(C)CC4)ccc3OCC)nc12 [sildenafil, 1-[4-ethoxy-3-(6,7-dihydro-1-methyl-7-oxo-3-propyl-1H-pyrazolo[4,3-d]pyrimidin-5-yl)phenylsulphonyl]-4-methylpiperazine, reference compound] | – | – | – | – | – | – | – | 625 | significantly shortened
